Measurements reported in ChEMBL document CHEMBL4219081, “Discovery of 1,2,3,4-tetrahydropyrimido[1,2-a]benzimidazoles as novel class of corticotropin releasing factor 1 receptor antagonists” (Bioorg Med Chem, 2018).
Values after ≈ are worked out from the molar mass of the structure shown.

Tests used:
[1] = Lipophilicity, log D of the compound at pH 7.4; type: physicochemical; settings: buffer
[2] = Solubility of the compound in JP2 buffer at pH 6.8 at 10 mmol/L; type: physicochemical
[3] = Oral bioavailability in rat at 1 mg/kg administered as cassette dose; type: ADME, organism-based; settings: in vivo
[4] = Kinetic solubility in PBS; type: physicochemical; settings: read-out: Kinetic_solubility
[5] = Oral bioavailability in rat at 5 mg/kg administered as cassette dose; type: ADME, organism-based; settings: in vivo

SMILES | logD [1] | solubility [2] [µg/mL] | bioavailability [3] [%] | solubility kinetic [4] [µg/mL] | bioavailability [5] [%]
CCC(c1ccc(Cl)c2nc3n(c12)CCCN3c1ccc(Cl)cc1Cl)n1ccnc1 (configuration not stated) | 3.53 |  |  |  | 
CCC(=O)c1ccc(Cl)c2nc3n(c12)CCCN3c1ccc(Cl)cc1Cl | 4.01 |  |  |  | 
CCN(CC)c1ccc(Cl)c2nc3n(c12)CCCN3c1ccc(Cl)cc1Cl | 5.25 | < 0.06 | 4.1 |  | 
CCC(OC)c1ccc(Cl)c2nc3n(c12)CCCN3c1ccc(Cl)cc1Cl (configuration not stated) | 4.38 |  |  |  | 
CCC(C#N)c1ccc(Cl)c2nc3n(c12)CCCN3c1ccc(Cl)cc1Cl (configuration not stated) | 3.69 |  |  |  | 
COc1nc(C)c(N2CCCn3c2nc2c(Cl)ccc([C@@H](OC(F)F)C(F)(F)F)c23)c(C)n1 | 3.18 |  |  | 55 (≈ 112 µM) | 68
CCC(O)c1ccc(Cl)c2nc3n(c12)CCCN3c1ccc(Cl)cc1Cl (configuration not stated) | 3.57 |  |  |  | 
COc1nc(C)nc(OC)c1N1CCCn2c1nc1c(Cl)ccc(C(OC(F)F)C(F)(F)F)c12 (racemic) | 3.71 | 14 (≈ 27.6 µM) |  |  | 
CCc1nc(C)c(N2CCCn3c2nc2c(Cl)ccc(C(OC(F)F)C(F)(F)F)c23)c(C)n1 (racemic) | 3.21 | 37 (≈ 75.5 µM) |  |  | 
COc1ccc(N2CCCn3c2nc2c(Cl)ccc(C(OC(F)F)C(F)(F)F)c23)c(C)n1 (racemic) | 3.43 | 17 (≈ 35.7 µM) |  |  | 
COc1nc(C)c(N2CCCn3c2nc2c(Cl)ccc(C(OC(F)F)C(F)(F)F)c23)c(C)n1 (racemic) | 3.08 | 54 (≈ 110 µM) |  |  | 
Cc1nc(C)c(N2CCCn3c2nc2c(Cl)ccc(C(OC(F)F)C(F)(F)F)c23)c(C)n1 (racemic) | 2.87 | 71 (≈ 149 µM) |  |  | 
CCc1nc(C)nc(CC)c1N1CCCn2c1nc1c(Cl)ccc(C(OC(F)F)C(F)(F)F)c12 (racemic) | 3.52 | 46 (≈ 91.3 µM) |  |  | 
FC(F)OC(c1ccc(Cl)c2nc3n(c12)CCCN3c1ccc(Cl)cc1Cl)C(F)(F)F (racemic) | 4.3 | < 0.09 |  |  | 
COc1ccc(N2CCCn3c2nc2c(Cl)ccc(C(OC(F)F)C(F)(F)F)c23)c(C)c1 (racemic) | 3.76 | 1.5 (≈ 3.15 µM) |  |  | 
